The results in this text go back to patent US11186817B2, “Chemically defined cell culture media additive” (IUCF-HYU (INDUSTRY-UNIVERSITY COOPERATION FOUNDATION …, priority 2014, dated 2021).

The assay concerns CHO DG44 cell line. Briefly: Cell line growth in HY-CDM media supplemented with DHF. Format: cell-based, Chinese hamster. An excerpt: 1. Cell line and media: CHO DG44 cell line was used as a DHFR-deficient cell line. The cell line was passaged 80 times or more and suspension adapted in HY-CDM (in-house) media as chemically defined media. The suspension-adapted cell line was used to evaluate the influence of tetrahydrofolate (THF) and dihydrofolate (DHF) and the growth characteristics in commercial chemically defined media. The HY-CDM media were composed of chemically defined components only. Each HY-CDM medium further included a growth factor. HY-CDM media used in Examples 1, 3, and 4 were free of an animal derived lipid mixture, and HY-CDM media used in Example 2 were supplemented with cod liver oil.
2. Cell suspension culture: The cell line was inoculated at a density of 4×10^5 cells/ml and cultured in an Erlenmeyer flask with a 30 ml/125 ml working volume on an orbital shaker at 120 rpm under humidified conditions at 37° C. and 5% CO2. Before inoculation, the cells were centrifuged at 1,000 rpm (×162 g) for 5 min, the supernatant was discarded, and the remaining cells were dispersed into single cells in the heated medium. The cells were passaged three times to minimize the influence of the remaining medium under the experimental conditions. The subcultured cells were evaluated.
3. Density of live cells: The density of live cells was analyzed using a hemocytometer (Neubauer improved bright-line, Marienfeld, Germany), an inverted microscope (CK30, Olympus, Japan), and trypan blue dye exclusion.
DHF was used at the same concentrations as THF. The addition of DHF at concentrations of […] improved cell growth by 11% and 24%, respectively (Table 8), which were about 7 times lower than the addition of THF.

The structures appear in SMILES notation.

Consider `Nc1nc(=O)c2c([nH]1)NCC(CNc1ccc(C(=O)N[C@@H](CCC(=O)O)C(=O)O)cc1)=N2` [DHF, dihydrofolate], for which the “Increment compared to control” value is, setting by setting: (DHF 1.8 μM) 1.5%; (DHF 3.6 μM) 11.1%; (DHF 35.9 μM) 24.1%. The “Maximum cell concentration, Average” value is listed as 18.0 ×10^5 cells/ml (DHF 1.8 μM), 19.7 ×10^5 cells/ml (DHF 3.6 μM) and 22.0 ×10^5 cells/ml (DHF 35.9 μM). Further, where the note is “DHF 3.6 μM and 35.9 μM”, the “Cell growth improvement lower than with the addition of THF” value was “about 7 times”. Also, the Improved cell growth reads like this: (DHF 3.6 M) 11%; (DHF 35.9 M) 24%.
